# Measurements: US9078843B2, “Immunogenic fragments of T-cell receptor constant domains and peptides derived therefrom” (priority 2005, dated 2015)
# Assays:
# [1] = test system: IgM in sera; test: Antigen microarray, serum IgM binding to TCR gamma constant region peptides; parameters: species or system human; conditions: serum 1:5
# Source text: (§1) The antigenicity of peptides derived from human T-cell receptor gamma-chain constant region (accession no: AAB63314; SEQ ID NO:173) was essayed using antigen array technology, as detailed below.
# (§2) Serum samples: Blood samples were obtained by random availability from 12 healthy adults and from 9 adults newly diagnosed with lung cancer, before treatment. All samples were collected with informed consent and approval of the Helsinki committee of the Sheba Medical Center, Tel Hashomer, Israel. The blood samples were allowed to clot at room temperature. After centrifugation, sera were collected and stored at −20° C.
# (§3) Antigen microarray: Antigens diluted in PBS were placed in 384-well plates at a concentration of 1 μg/μl. We used a robotic MicroGrid arrayer with solid spotting pins of 0.2 mm in diameter (BioRobotics, Cambridge, U.K.) to spot the antigens onto ArrayIt SuperEpoxi microarray substrate slides (TeleChem, Sunnyvale, Calif.). the antigens were spotted in replicates of 4, and the microarrays were blocked for 1 h at 37° C. with 1% bovine serum albumin, and incubated under a cover-slip overnight at 4° C. with a 1:5 dilution of the test serum in blocking buffer. The quantitative range of signal intensity of binding to each antigen spot was 0.01-65,000, and this range of detection made it possible to record reliable data with little dilution of test samples. The arrays were then washed and incubated for 1 hour at 37° C. with a 1:500 dilution of detection antibodies. Two detection antibodies were used: a goat anti-human IgG Cy3-conjugated antibody and a goat anti-human IgM Cy5-conjugated antibody, purchased from Jackson ImmunoResearch, West Grove, Pa. The arrays were washed again, spin-dried, and scanned with a ScanArray 4000× scanner (GSI Luminomics, Billerica, Mass.). The results were recorded as TIFF files. Image acquisition by laser and quantification were done as described (Quintana et al., 2004).
# (§4) Data preprocessing and background filtering: Antigen reactivity was defined by the mean intensity of the 4 replicates of binding to that antigen on the microarray. We identified positive antibodies in the following way: To establish the minimum level of significant antibody binding, we calculated the mean reactivity level of 32 spots incubated with phosphate buffered saline (PBS) in place of an antigen on each microarray slide. A signal was scored as positive when it expressed intensity greater than the upper limit of the PBS control, which was defined as the mean intensity of the PBS spots plus 2-times the standard deviation. Signal intensity above the PBS background was considered positive antibody binding.
# (§5) The presence of IgG and IgM in sera obtained from patients with lung cancer and from healthy controls was determined using the antigen microarray, as detailed above. The results, presented in Table 13, represent the mean reactivity of 12 control subjects and 9 lung cancer subjects.
# [2] = test system: IgG in sera; test: Antigen microarray, serum IgG binding to TCR gamma constant region peptides; parameters: species or system human; conditions: for Antigen Binding (Mean Intensity) IgG: serum 1:5
# Source text: as §1, §2, §3, §4, §5
# [3] = test system: adjuvant arthritis (AA); test: Adjuvant arthritis (AA) after vaccination with recombinant proteins or peptides; assay type: in vivo, Lewis rats; conditions: single ip dose of 100 μg protein or peptide in IFA, AA induced seven days later; FIG. 4
# Method: AA was induced as described (Quintana et al 2002), using 1 mg per rat of heat-killed Mt strain H37Ra (Difco). Each experimental and control group contained at least 8 rats. The day of AA induction was designated as day 0, and disease severity was assessed by direct observation of all 4 limbs in each animal. A relative score between 0 and 4 was assigned to each limb, based on the degree of joint inflammation, redness and deformity; thus the maximum possible score for an individual animal was 16 (Quintana et al 2002). The mean AA score (±SEM) is shown for each experimental group. Arthritis was also quantified by measuring hind limb diameter with a caliper. Measurements were taken on the day of the induction of AA and 26 days later (at the peak of AA); the results are presented as the mean±SEM of the difference between the two values for all the animals in each group. The person who scored the disease was blinded to the identity of the groups. Experiments were repeated at least 3 times and produced similar results.
# Female Lewis rats were immunized ip with a single dose of 100 μg of peptide or recombinant protein emulsified in IFA.
# We studied the immune effects of vaccination with recombinant C1 (rβC1) or C2 (rβC2), or with C1/2-derived peptides (Table 1). Female Lewis rats were immunized with a single ip dose of 100 μg of protein or peptide in IFA, and seven days later AA was induced.
# [4] = test system: draining lymph node cells (LNC); test: T-cell proliferation of lymph node cells from vaccinated rats ([methyl-3H]-thymidine, stimulation index); assay type: cell-based, Lewis rats; conditions: for proliferative responses of LNC to PPD: LNC from peptide immunized rats; for T-cell responses of immunized rats to the immunizing peptide (immunogenicity): rats vaccinated with the peptide, FIG. 6B
# Method: Unless otherwise stated, T-cell proliferation assays were performed at day 26 after the induction of AA, when the disease is at its peak, as previously described (Quintana et al 2002). Briefly, popliteal and inguinal lymph node cells (LNC), were cultured in quadruplicates in 200 μl round bottom microtiter wells (Costar Corp., Cambridge, USA) at 2×10^5 cells per well with or without antigen. The T-cell mitogen Concanavalin A (Con A) was used as a positive control for T-cell proliferation. Cultures were incubated for 96 hrs at 37° C. in a humidified atmosphere of 5% CO2. T-cell responses were detected by the incorporation of [methyl-3H]-thymidine (Amersham, Buckinghamshire, UK; 1 μCi/well), which was added to the wells for the last 18 hours. The stimulation index (SI) was computed as the ratio of the mean c.p.m. of antigen- or mitogen-containing wells to control wells cultured with medium alone. The results of T-cell proliferation experiments are shown as SI±SEM, T-cell responses with SI<2 were considered not significant.
# To study the immune responses associated with the inhibition of AA by DNA vaccination with pβC1 or pβC2, we analyzed the T-cell responses of immunized rats 26 days after the induction of AA. We stimulated draining lymph node cells (LNC) in vitro with a collective of Mycobacterial antigens known to be associated with AA: HSP65, PPD and Mt176-190. The Mt176-190 peptide contains the 180-188 epitope of HSP65 described by van Eden et al which is recognized by HSP65-specific T-cell clones that can transfer AA (van Eden et al 1985). We also studied the immune response directed to recombinant βC1 and recombinant βC2, or to βC1/2 peptides predicted to bind the MHC class II molecule of the Lewis rat (see Table 1). Glutathione-S-transferase (GST) was included as a control antigen. […] 149 (MED12).
# To study the effect of C1/2 vaccination on the immune response to C1/2 peptides and to the target antigens of AA, we vaccinated rats with rβC1 or rβC2, and then induced AA. At day 26, we removed the draining lymph nodes and measured the T-cell proliferative responses to peptides N12 (SEQ ID NO:147), MED12 (SEQ ID NO:149) or C2C (SEQ ID NO:152), or to the Mycobacterial antigens. […] Thus the C1/2 peptides are immunologically dominant.
# [5] = HEALTHY CONTROLS, mean of 12 subjects
# [6] = LUNG CANCER, mean of 9 subjects
Substance,"Antigen Binding (Mean Intensity) IgM [1, 5]","Antigen Binding (Mean Intensity) IgM [1, 6]","Antigen Binding (Mean Intensity) IgG [2, 5]","Antigen Binding (Mean Intensity) IgG [2, 6]",response of antibodies to the peptide ([2]; antibodies from control subjects),severity of the disease (AA score) [3],proliferative responses of LNC to PPD ([4]; FIG. 6A),T-cell responses of immunized rats to the immunizing peptide (immunogenicity) [4],"proliferative responses of LNC to mt180 and HSP65 ([4]; LNC from peptide-vaccinated rats, FIG. 6A)"
AYYMYLLLLLKSVVYFAIIT [SEQ ID NO:166],87,140,199,996,,,,,
DQEIIFPPIKT [SEQ ID NO:161],86,160,−147,846,,,,,
KAGTYLCLLEKFFPDVIKI [SEQ ID NO:158],1753,2381,2233,2116,responded,,,,
KEHRCIVDTLLLQL [SEQ ID NO:165],97,103,95,1095,,,,,
KPTIFLPSSWLTVPE [SEQ ID NO:164],−24,86,−240,−114,,,,,
VVYFAIITCCLLRRTAFCCN [SEQ ID NO:167],548,512,376,1928,,,,,
dspkpvtqnisaeawgr (DSPKPVTQNISAEAWGR; listed as Rattus norvegicus) [MED12],,,,,,significantly decreased,increased proliferative responses,significant T-cell responses,
vlvsalvlmamvkkkns (VLVSALVLMAMVKKKNS; listed as Rattus norvegicus) [C2C],,,,,,significantly decreased,increased proliferative responses,significant T-cell responses,increased proliferative responses
vtppkvslfepseaeia (VTPPKVSLFEPSEAEIA; listed as Rattus norvegicus) [N12],,,,,,significantly decreased,increased proliferative responses,significant T-cell responses,
